According to paper PMC8518806 (2021):

How the values were obtained:
[1] = tested on: BeCA (RNA8-2) (RNA, aptamer) GGAGGUACGUGGACUGCUUAUGCAGUAGGAAGGCCUCC; assay: fluorescence turn-on titration (NIR); settings: 125 mM KCl, 5 mM MgCl2; 20 mM Hepes pH 7.4; 100 nM BC6
[2] = tested on: M5 (RNA, aptamer) GGAGGUACGUGGACUGCUUAUGCAGUAGGAAGUCCUCC; assay: fluorescence turn-on titration; settings: 125 mM KCl, 5 mM MgCl2; 20 mM Hepes pH 7.4; 100 nM BC1-DN
[3] = tested on: M10 (RNA, aptamer) GGAGGUACGUGGACUGCUUAUGCAGUAGGAAGCCUCC; assay: fluorescence turn-on titration; settings: 125 mM KCl, 5 mM MgCl2; 20 mM Hepes pH 7.4; 100 nM BC1-DN
[4] = tested on: M8 (RNA, aptamer) GGAGGUCGUGGACUGCUUAUGCAGUAGGAAGGCCUCC; assay: fluorescence turn-on titration; settings: 125 mM KCl, 5 mM MgCl2; 20 mM Hepes pH 7.4; 100 nM BC1-DN
[5] = tested on: M6 (RNA, aptamer) GGAAAUACGUGGACUGCUUAUGCAGUAGGAAGGUUUCC; assay: fluorescence turn-on titration; settings: 125 mM KCl, 5 mM MgCl2; 20 mM Hepes pH 7.4; 100 nM BC1-DN
[6] = tested on: M7 (RNA, aptamer) GGAGUACGUGGACUGCUUAUGCAGUAGGAAGGCUCC; assay: fluorescence turn-on titration; settings: 125 mM KCl, 5 mM MgCl2; 20 mM Hepes pH 7.4; 100 nM BC1-DN
[7] = tested on: M11 (RNA, aptamer) GGAGGUACGUGGGCUGCUUAUGCAGCAGGAAGGCCUCC; assay: fluorescence turn-on titration; settings: 125 mM KCl, 5 mM MgCl2; 20 mM Hepes pH 7.4; 100 nM BC1-DN
[8] = tested on: RNA8-3 (RNA, aptamer) GGAGGUACGUGGAUAGGAAGGCCUCC; assay: fluorescence turn-on titration; settings: 125 mM KCl, 5 mM MgCl2; 20 mM Hepes pH 7.4; 100 nM BC1-DN
[9] = tested on: M3 (RNA, aptamer) GGAGGUACGUGGACUGCUUAUGCAGUAGGAAGACCUCC; assay: fluorescence turn-on titration; settings: 125 mM KCl, 5 mM MgCl2; 20 mM Hepes pH 7.4; 100 nM BC1-DN
[10] = tested on: M12 (RNA, aptamer) GGAGGUACGUGGACUGCUUCGGCAGUAGGAAGGCCUCC; assay: fluorescence turn-on titration; settings: 125 mM KCl, 5 mM MgCl2; 20 mM Hepes pH 7.4; 100 nM BC1-DN
[11] = tested on: M4 (RNA, aptamer) GGAGGUACGUGGACUGCUUAUGCAGUAGGAAGCCCUCC; assay: fluorescence turn-on titration; settings: 125 mM KCl, 5 mM MgCl2; 20 mM Hepes pH 7.4; 100 nM BC1-DN
[12] = tested on: M2 (RNA, aptamer) GGAGGGACGUGGACUGCUUAUGCAGUAGGAAGCCCUCC; assay: fluorescence turn-on titration; settings: 125 mM KCl, 5 mM MgCl2; 20 mM Hepes pH 7.4; 100 nM BC1-DN
[13] = tested on: RNA8-1 (RNA, aptamer) GGAGGCAGGGCUUAGUUGAGGUACGUGGACUGCUUAUGCAGUAGGAAGGCCUCACUUUUCCGCCGUUGGCACCAC; assay: fluorescence turn-on titration; settings: 125 mM KCl, 5 mM MgCl2; 20 mM Hepes pH 7.4; 100 nM BC1-DN
[14] = tested on: M1 (RNA, aptamer) GGAGGCACGUGGACUGCUUAUGCAGUAGGAAGGCCUCC; assay: fluorescence turn-on titration; settings: 125 mM KCl, 5 mM MgCl2; 20 mM Hepes pH 7.4; 100 nM BC1-DN
[15] = tested on: BeCA (RNA8-2) (RNA, aptamer) GGAGGUACGUGGACUGCUUAUGCAGUAGGAAGGCCUCC; assay: fluorescence turn-on titration; settings: 125 mM KCl, 5 mM MgCl2; 20 mM Hepes pH 7.4; 100 nM BC1-DN
[16] = tested on: M9 (RNA, aptamer) GGAGGUAGUGGACUGCUUAUGCAGUAGGAAGGCCUCC; assay: fluorescence turn-on titration; settings: 125 mM KCl, 5 mM MgCl2; 20 mM Hepes pH 7.4; 100 nM BC1-DN

| Structure (SMILES) | KD [1] [nM] | KD [2] [nM] | KD [3] [nM] | KD [4] [nM] | KD [5] [nM] | KD [6] [nM] | KD [7] [nM] | KD [8] [nM] | KD [9] [nM] | KD [10] [nM] | KD [11] [nM] | KD [12] [nM] | KD [13] [nM] | KD [14] [nM] | KD [15] [nM] | KD [16] [nM] |
| --- | --- | --- | --- | --- | --- | --- | --- | --- | --- | --- | --- | --- | --- | --- | --- | --- |
| CN(C)c1ccc2c(c1)OC(c1cc3ccc(N(C)C)cc3oc1=O)=CC21c2ccccc2C(=O)N1C#N (stereo not shown) | 220 |  |  |  |  |  |  |  |  |  |  |  |  |  |  |  |
| CN(C)c1ccc2cc(-c3cc(-c4ccc(C(=O)NCCOCCOCCNc5ccc([N+](=O)[O-])cc5[N+](=O)[O-])cc4C(=O)[O-])c4ccc(N(C)C)cc4[o+]3)c(=O)oc2c1 |  | 1300 ± 270 | 770 ± 180 | 1100 ± 440 | 350 ± 50 | 200 ± 30 | 270 ± 80 | > 10000 | 620 ± 190 | 330 ± 120 | 4600 ± 1400 | 1700 ± 480 | 900 ± 200 | 1100 ± 470 | 230 | 250 ± 60 |
